Holding throughout (assay): NCI-60 cell line screen, 48 h
Assay [1] deals with A549 NSCLC.
For assay [2], the system named is HCC-2998 colon.
The subject of assay [3] is HOP-62 NSCLC.
In assay [4] the test system is MDA-MB-231 breast.
Assay [5] relates to MOLT-4 leukemia.
Assay [6] concerns OVCAR-8 ovarian.
For assay [7], the system named is PC-3 prostate.
Assay [8] relates to SF-295 CNS.
Assay [9] concerns SNB-19 CNS.
Assay [10] relates to U251 CNS.

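Each compound was tested at five concentrations against cells in 96-well plates for 48 hours. TGI: concentration producing complete growth inhibition.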

In the case of `Cc1ccc(/C=C2\CN(C)CC3C(c4ccc(C)cc4)=C(C#N)C(=O)NC23)cc1` (stereo unspecified), the TGI in assay [1], in assay [2], in assay [3], in [4], in assay [5] and in assay [6] was greater than 50 µM throughout. Further, the TGI in assay [7], in assay [8], in assay [9] and in assay [10] was greater than 50 µM throughout.

As to `CCOc1cc(/C=N\N(C)C)cc(/C=N\N(C)C)c1O`, the TGI is greater than 100 µM in [1]; greater than 100 µM in [2]; greater than 100 µM in assay [3]; greater than 100 µM in assay [4]; greater than 100 µM in [5]; 56.2 µM in assay [6]. The TGI is greater than 100 µM in [7], greater than 100 µM in [8], greater than 100 µM in assay [9] and 89.9 µM in assay [10].

For `ClC(Cl)(Cl)C1CCOC1n1nc2ccccc2n1` (stereo unspecified), the TGI in [1], in assay [2], in assay [3], in assay [4], in [5] and in [6] was greater than 100 µM in each case. In addition, the TGI in assay [7], in [8] and in assay [10] was greater than 100 µM each time.

With `CSCCC(NCc1c(O)ccc2ccc(=O)oc12)C(=O)O` (stereo unspecified), the TGI in assay [1], in assay [2], in [3], in assay [4], in assay [5] and in [6] was greater than 100 µM each time. Besides, the TGI in assay [7], in assay [8], in assay [9] and in assay [10] was greater than 100 µM in each case.

Consider `CSC(SC)=C1C(=O)NN=C1C`, for which the TGI in assay [1], in [2], in assay [3], in assay [4], in [5] and in assay [7] was greater than 100 µM each time. Also, the TGI in [8], in [9] and in assay [10] was greater than 100 µM each time.

Turning to `C[C@H](CCC1=NCCN1)[C@H]1CC[C@H]2[C@@H]3[C@H](O)C[C@@H]4C[C@H](O)CC[C@]4(C)[C@H]3CC[C@]12C`, the TGI in assay [2] was determined as 28.5 µM; in [3], 29.7 µM; in assay [4], 33.5 µM; in assay [5], 27.3 µM; in [6], 29 µM; in assay [7], 21 µM. Further, the TGI was 28.9 µM in [8], 26.1 µM in [9] and 26.5 µM in assay [10].

With `CC(=O)OCC1OC(Nc2ccc3nc(C)n(-c4cccc(C)c4)c(=O)c3c2)C(OC(C)=O)C(OC(C)=O)C1OC(C)=O` (stereo unspecified), the TGI in assay [2], in assay [3], in assay [4], in [5], in [6] and in [7] was greater than 62.5 µM each time. Moreover, the TGI in assay [8], in [9] and in assay [10] was greater than 62.5 µM throughout.

As for `O=c1[nH]c2cc(C(F)(F)F)ccc2nc1Cc1ccccc1`, the TGI is greater than 100 µM in [2]; 95.9 µM in [3]; 83.6 µM in assay [4]; greater than 100 µM in assay [5]; greater than 100 µM in assay [6]; greater than 100 µM in assay [7]. Moreover, the TGI in assay [8], in assay [9] and in assay [10] was greater than 100 µM throughout.

As for `Cc1nc2c(o1)C(=O)c1ccccc1C2=NC1CCCCC1N` (stereo unspecified), the TGI in assay [1] was 2.91 µM; in [2], 3.02 µM; in assay [3] it was 2.3 µM; in assay [4], 2.75 µM; in [5], 1.46 µM; in assay [6], 1.21 µM. Further, the TGI was determined as 3.46 µM in assay [7], 2.1 µM in assay [9] and 1.32 µM in [10].

In the case of `COC(=O)c1ccc2c(c1)CC1(C2)Cc2cc3c(c(C(=O)OC)c2C1)CCCC3` (stereo unspecified), the TGI in assay [1], in assay [2], in [3], in assay [4], in assay [5] and in assay [6] was greater than 100 µM in each case. In addition, the TGI in [7], in assay [8] and in assay [10] was greater than 100 µM in each case.

For the compound `CSc1c(C(=O)Nc2ccc(C)cc2)c(N)nn1-c1ccccc1`, the TGI in assay [1], in assay [2], in assay [3], in assay [4], in assay [5] and in [7] was greater than 100 µM throughout. Further, the TGI in assay [8], in [9] and in assay [10] was greater than 100 µM in each case.

Consider `Oc1c(C2=NNC(c3cccs3)C2)ccc2ccccc12` (stereo unspecified), for which the TGI was greater than 100 µM in assay [1]; 34.2 µM in assay [2]; 99.4 µM in assay [3]; 91.2 µM in assay [4]; 30.9 µM in assay [5]; 94.2 µM in assay [6]. Also, the TGI is greater than 100 µM in assay [7], 57.6 µM in assay [8] and 69.5 µM in assay [10].

The record behind these values is PubChem BioAssay (NCI).
